Results: patent US20180303101A1, “METHOD OF IMPROVING GRASS QUALITY” (priority 2004, published 2018)

Assays:
Type in all cases: in vivo
[1] = system: Penncross creeping bentgrass; experiment: Canopy net photosynthetic rate at high temperature treatment (Example 1)
Description: (§1) The following test methods were used to compare the effectiveness of a phthalocyanine composition according to the invention with known compositions. The following compositions were used in the experiments: Pigment Green 7 obtained from Sun Chemical Corporation as the water-dispersible product SUN T-64-1660 (containing 45 to 55 wt. % of Pigment Green 7) was used alone. A mixture of Pigment Green 7 and fosetyl-al was used as the commercially available product Chipco® Signature™ fungicide from Bayer Environmental Science, Montvale, N.J. The compound fosetyl-al was used as Chipco® Aliette® WDG fungicide available from Bayer Environmental Science, Montvale N.J.
(§2) Seeds of “Penncross” creeping bentgrass were sown in polyvinyl chloride (PVC) tubes (10 cm in diameter and 20 cm in length) filled with coarse sand. Plants were kept in a growth chamber for 90 days before treatment stated to allow root and canopy establishment. The daily temperature in the growth chamber was 20/16° C., the photosynthetic photon flux density was 400 μmol m−2 s−1, and the photoperiod was 12 hours/day. […]
Canopy net photosynthetic rate was measured as described below using a Li-6400 portable photosynthesis system (available from LiCor, Lincoln, NB).

[2] = system: Penncross creeping bentgrass; experiment: Chlorophyll content at high temperature treatment (Example 1)
Description: as §1
Seeds of “Penncross” creeping bentgrass were sown in polyvinyl chloride (PVC) tubes (10 cm in diameter and 20 cm in length) filled with coarse sand. […]
Chlorophyll and carotenoids were extracted by soaking 50 mg fresh shoots in 20 ml dimethyl sulfoxide (DMSO) in the dark for 72 hours. Absorbance of each extractant at 663 nm, 645 nm, and 470 nm was used to determine chlorophyll content using the formula of Arnon (1949) and carotenoids content using the formula of Lichtenthaler and Wellburn (1983) Canopy photochemical efficiency was estimated by measuring chlorophyll fluorescence (Fv/Fm) using plant photosynthesis efficiency analyzer (available from ADC Bioscientific Limited, Herts, England).

[3] = system: Penncross creeping bentgrass; experiment: Shoot growth rate in canopy height at high temperature treatment (Example 1); conditions: plants with and without pretreatment
Description: as §1
(§3) Seeds of “Penncross” creeping bentgrass were sown in polyvinyl chloride (PVC) tubes (10 cm in diameter and 20 cm in length) filled with coarse sand. Plants were kept in a growth chamber for 90 days before treatment stated to allow root and canopy establishment. The daily temperature in the growth chamber was 20/16° C., the photosynthetic photon flux density was 400 μmol m−2 s−1, and the photoperiod was 12 hours/day. Turf was mowed twice weekly at 4 mm with scissors, irrigated every other day until there was free drainage from the bottom of tubes, and fertilized weekly with 40 ml full-strength Hoagland's nutrient solution (Hoagland and Arnon, 1950). Insecticide was applied to kill whitefly when necessary. […]

[4] = system: Penncross creeping bentgrass; experiment: Final root and canopy biomass at high temperature treatment (Example 1); conditions: plants with and without pretreatment, end of experiment
Description: as §1, §3

[5] = system: Penncross creeping bentgrass; experiment: Root mortality at high temperature treatment (Example 1); conditions: plants with or without pretreatment
Description: as §1, §2
Root mortality was measured using the method of Knievel (1973) with modification.
Samples of 0.5 g clean fresh roots were incubated with 10 mL 0.6% 2,3,5-triphenyltetrazolium chloride (in 0.05 M phosphate buffer, pH 7.4) for 24 hours in the dark at 30° C. […] Absorbance at 490 nm was used to determine root mortality.

[6] = system: Penncross creeping bentgrass; experiment: Tiller density at high temperature treatment (Example 1)
Description: as §1, §3

[7] = system: Penncross creeping bentgrass; experiment: Influence of foliar applied phthalocyanine pigment on creeping bentgrass photosynthesis (Example 9)
Description: Studies carried out as a follow-up to Example 1 were conducted in 2005 to determine the influence of foliar applied phthalocyanine pigment on creeping bentgrass photosynthesis.
“Penncross” creeping bentgrass plants were grown in a growth chamber on a sand soil in PVC tubes (10 cm in diameter) maintained at 20° C. Plants were maintained at a canopy height of approximately 5 cm and a nutrient solution was applied weekly to maintain adequate fertility. Four plants were treated with Pigment Green 7 at a rate of 6.92 g/1000 sq. ft. (0.74 kg/ha) (with 0.6% Tween 20 being added to keep the pigment on the leaves for better absorption) and four plants were left untreated to serve as the controls (being sprayed with water only). Photochemical efficiency, chlorophyll content, and single leaf net photosynthesis were measured at one, three, seven, and fourteen days after application. Different light intensities of 1500, 750, 500, 250, 150, 50, and 0 μmol m−2 s−1 of photosynthetically active radiation (PAR, 400-700 nm) were generated inside the leaf chamber by an LED light source to generate a light response curve. Net photosynthesis was measured as the rate of CO2 uptake φmol m−2s−1). […] Photosynthesis was higher from the first day after application and all subsequent sampling dates. […] However at intensities of from 50 to 1500 μmol photons m−2 s−1 treated plants were more efficient in utilizing the constant amount of light produced in the leaf chamber.

[8] = 20° C., 6.92 g/1000 sq. ft. with 0.6% Tween 20, 1, 3, 7, 14 days after application

Pigment Green 7
Net photosynthetic rate (Pn) ([1]; plants with pretreatment): higher with application of Pigment Green 7 and Signature fungicide than with application of Aliette fungicide and water
Net photosynthetic rate (Pn) ([1]; plants without pretreatment): highest
Chlorophyll content (fresh weight basis) ([2]; plants with pretreatment): highest
Chlorophyll content (fresh weight basis) ([2]; plants without pretreatment): higher with application of Signature fungicide and Pigment Green 7 than with application of Aliette fungicide
Shoot growth rate in canopy height [3]: higher with application of Signature fungicide and Pigment Green 7 than with application of Aliette fungicide and water
Canopy biomass (dry weight) [4]: higher with application of Signature fungicide and Pigment Green 7 than with application of Aliette fungicide and water
Roots biomass (dry weight) [4]: higher with application of Signature fungicide and Pigment Green 7 than with application of Aliette fungicide and water
Root mortality [5]: lower root mortality than application of Signature fungicide and Aliette fungicide
Tiller density, difference among applications [6]: no significant difference
Light compensation point ([7]; 6.92 g/1000 sq. ft. foliar application): unaltered by treatment
Photochemical efficiency (Fv/Fm), treated versus control plants [7, 8]: No differences
Total chlorophyll per gram of tissue, treated versus control plants [7, 8]: no statistically significant differences
Single leaf net photosynthesis (rate of CO2 uptake), treated versus control plants ([7]; all light intensities greater than 50 μmol photons m−2 s−1, 6.92 g/1000 sq. ft., from first day and all subsequent sampling dates): higher for treated plants compared to controls
Stability after foliar application (from higher net photosynthesis on every date) ([7]; on bentgrass leaves, 6.92 g/1000 sq. ft.): stable for at least fourteen days after foliar application
